Read-outs that look alike come from different tables or passages of the source.
What was measured:
BamA [1] = conditions: BamA identified as target; Gram-negative bacteria; ref Hart et al., 2019; Li et al., 2020; cited from earlier work
Source text: Among the putative Mag-2 interactors, we focused our attention on the Bam complex as the proteomic experiment led to the identification of all the protein components of this complex essential for bacterial surviving. In particular, BamA is the central component of the Bam complex while BamB, -C, -D and -E are four lipoproteins with a secondary role.

[2] = cited from earlier work
Source text: Biophysical studies led to hypothesize three models that can explain the membrane disruption by AMPs: barrel-stave, toroidal pore and carpet mechanisms ([Di Somma et al., 2020]). According to these mechanisms, antimicrobial peptides interact with bacterial outer membranes, perturbing their integrity and causing their disaggregation ([Huang, 2006]). Most of AMPs show pore formation after binding to the membrane surface. X-ray crystallization studies and spectroscopic analyses reported that Alamethicin, a channel-forming peptide, insert into the lipid bilayer to form a barrel-stave pore structur ...

OmpF = conditions: 50 µM Mag-2 for 1h, 2 h and 3h; triplicate LC-MS/MS; t-test p < 0.05; with increasing time of incubation
OmpA [3] = test: Western blot densitometry of OmpA in E. coli after Mag-2 incubation; assay type: cell-based; conditions: 75 µM Mag-2, 1 h
Experimental: The E. coli cells were grown in the presence and in the absence of 50 µM Mag-2 for 1h, 2h and 3 h. The level of the OmpA protein was identified by Western Blot using a specific antiOmpA antibody. The amount of OmpA was then evaluated by densitometric analysis of the corresponding western blotted band. […] The same experiment was also carried out using a higher concentration of Mag-2 (75 µM) for as fixed time (1 h).

BamAp5 = biological target: T1, BamAp5 (Escherichia coli, UniProt P0A940); test: Intrinsic fluorescence binding titration; set-up: species or system E. coli
T1 construct: 6xHis; made in house; host or cells: E. coli BL21
Experimental: Fluorescence experiments were performed on a Fluoromax-4 spectrofluorometer from Horiba Scientific, using 1 cm optical path-length quartz cell under controlled temperature conditions (Peltier control system at 20°C). Titrations were carried out in 20 mM Tris-HCl pH 8.4, 0.2% triton. The intrinsic fluorescence intensity of BamAP5 at a concentration of 3.7 × 10^−6 M was monitored at 280 nm (slit 4 nm) and the emission was monitored at 308 nm (slit 4 nm) without and in the presence of increasing concentrations of Mag-2 peptide (from 2 to 18.64 µM). All experiments were performed in duplicate. The change in the fluorescence intensity of the reaction set was fit into “one site-specific binding” equation of GraphPad Prism 5 (GraphPad Software).

bacterial membrane = conditions: ref Billah et al., 2022; cited from earlier work
Source text: Peptide binding is favoured by both hydrophobic interactions between non-polar amino acids and the hydrophobic nucleus of the membrane and electrostatic interactions between the positive charges of the peptides and the negative charges of lipids ([Bahar and Ren, 2013]). Although the mechanism of action is not yet fully understood at molecular level, it is known that Magain ...

OmpA [4] = test: LC-MRM/MS quantification of OmpA in E. coli after Mag-2 incubation; assay type: cell-based
Source text: Cone voltage was set to 35V.

[5] = tested on: E. coli membrane proteins; test: Pull-down proteomics, number of putative interactors; assay type: binding; conditions: biotinylated Mag-2 on avidin-agarose, biotin elution, LC-MS/MS; absent in control
BamA [6] = tested on: BamA
[7] = biological target: T2, 6XHis-tagged E. coli BamAp5 (β-barrel domain and fifth POTRA domain, residues 344-810) (E. coli, UniProt P0A940 344-810); test: other fluorescence titration; intrinsic fluorescence of 3.7 x 10^-6 M BamAp5 (excitation 280 nm, emission 308 nm) with Mag-2 from 2 to 18.64 µM; 20 mM Tris-HCl pH 8.4, 0.2% triton, 20°C; one site-specific binding fit; duplicate; conditions: both partners purified
T2 construct: Monomer by DLS; also called recombinant form of BamA

COC(=O)c1c(NC(=O)c2ccc([N+](=O)[O-])o2)sc2c1CCN(C(C)C)C2 [IMB-H4]
inhibition of the assembly of OMPs (BamA [1]): inhibits the assembly of OMPs in Gram-negative bacteria

NC(N)=NC(=O)CC(Nc1nc(N=C(N)N)nc(NC2CCC(NC(=O)Cn3nnc(-c4ccc(F)cc4)n3)CC2)n1)C1CC1 (stereo not drawn) [MRL-494]
inhibition of the assembly of OMPs (BamA [1]): inhibits the assembly of OMPs in Gram-negative bacteria

Alamethicin
membrane pore formation ([2]; X-ray crystallization and spectroscopic analyses, ref Qian et al., 2008): insert into the lipid bilayer to form a barrel-stave pore structure consisting of eight alamethicin helices

Magainin-2 (GIGKFLHSAKKFGKAFVGEIMNS) [Mag-2]
amount of OmpF by MRM (OmpF): clear decrease | change of OmpA level (OmpA [3]): rapid and drastic reduction of the OmpA level | Kd (BamAp5; intrinsic fluorescence quenching, ex 280 nm, em 308 nm, BamAP5 3.7 × 10^−6 M, Mag-2 2 to 18.64 µM, 20 mM Tris-HCl pH 8.4, 0.2% triton, 20°C, duplicate, one site-specific binding fit, read-out: dissociation constant of the complex, Kd): 3500 ± 100 nM | change of BamAP5 intrinsic fluorescence (BamAp5; λexc 280 nm, BamAp5 3.7 × 10^−6 M, increasing Mag-2, 20°C): fluorescence decreased at increasing concentrations of the peptide | mechanism of antimicrobial activity (bacterial membrane): toroidal mechanism | amount of OmpA peptide 252-263 (DGSVVVLGYTDR) by MRM peak area (OmpA [4]; 50 µM Mag-2, 1 h, vs control): decrease of the OmpA peptide | amount of OmpA by MRM (OmpA [4]; 50 µM Mag-2 for 1h, 2 h and 3h, triplicate LC-MS/MS, t-test p < 0.05, with increasing time of incubation): clear decrease | number of putative protein interactors [5]: 35 | hydrodynamic radius of the protein in presence of peptide (BamA [6]; DLS, 532.5 nm, peptide concentration ten times that of the protein, protein without peptide 4.7 ± 0.1 nm, at least 10 independent measurements): 4.3 ± 0.1 nm | aggregation state by DLS (BamA [6]; samples without and with peptide (ten times higher concentration than protein)): only the protein monomer is present in both samples

Melittin
membrane pore formation ([2]; fluorescence studies with phospholipid vesicles, ref Lohner and Blondelle, 2005): formation of pore coupled with the translocation of peptide across the lipid bilayer

B1: Magainin-2 (peptide, UniProt P11006 83-105, looked up)
peptide: GIGKFLHSAKKFGKAFVGEIMNS
notes: Magainin-2 (Mag-2), antimicrobial peptide of the African clawed frog Xenopus laevis; cut product of the magainins precursor; the docking text numbers it to Ser23; also called Mag-2; Maganin-2
Kd [7]: 3.5 ± 0.1 nM

Source: article PMC9620421, “The antimicrobial peptide Magainin-2 interacts with BamA impairing folding of E. coli membrane proteins” (Frontiers in Chemistry, 2022)
